Consider three compounds from patent US20160251332A1, “Herbicidal Compounds” (SYNGENTA PARTICIPATIONS AG, priority 2013, published 2016).

Type in all cases: in vivo
The test system of assay [1] is Zea mays. In words: Pre-emergence herbicidal activity, ZEAMX. The following applies: Application pre-emergence, 1000 g/Ha, evaluated after 13 days, scale 0-5. In outline: (§1)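 Damage was rated 13 days after treatment on a 0–5 scale (0 = no damage, 5 = total damage). Pots of seeds in standard soil were sprayed one day after sowing with an aqueous solution from an acetone/water (50:50), 0.5% Tween 20 formulation and kept at 24/16 °C day/night.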

In assay [2] the test system is Alopecurus myosuroides. Kind of assay: Post-emergence herbicidal activity, ALOMY. The following applies: Application post-emergence, 1000 g/Ha, evaluated after 13 days, scale 0-5. How it is done:
(§2) Seeds of a variety of test species were sown in standard soil in pots. After 8 days cultivation (post-emergence) under controlled conditions in a glasshouse (at 24/16° C., day/night; 14 hours light; 65% humidity), the plants were sprayed with an aqueous spray solution derived from the formulation of the technical active ingredient in acetone/water (50:50) solution containing 0.5% Tween 20 (polyoxyethelyene sorbitan monolaurate, CAS RN 9005-64-5). The test plants were then grown in a glasshouse under controlled conditions (at 24/16° C., day/night; 14 hours light; 65% humidity) and watered twice daily. After 13 days, the test was evaluated (5=total damage to plant; 0=no damage to plant).

Assay [3] deals with Zea mays. Kind of assay: Post-emergence herbicidal activity, ZEAMX. As to conditions: Application post-emergence, 1000 g/Ha, evaluated after 13 days, scale 0-5. The gist of the method:
(§3)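 Pot-grown plants, 8 days after sowing, were sprayed with compound formulated in acetone/water (50:50) with 0.5% Tween 20. Glasshouse conditions 24/16° C day/night, 14 h light, 65% humidity; damage scored after 13 days on a 0 (none) to 5 (total) scale.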

For assay [4], the system named is Abutilon theophrasti. Kind of assay: Pre-emergence herbicidal activity, ABUTH. The following applies: Application pre-emergence, 1000 g/Ha, evaluated after 13 days, scale 0-5. The gist of the method: as §1
For assay [5], the system named is Echinochloa crus-galli. Kind of assay: Pre-emergence herbicidal activity, ECHCG. As to conditions: Application pre-emergence, 1000 g/Ha, evaluated after 13 days, scale 0-5. In outline: as §1
Assay [6] concerns Abutilon theophrasti. In words: Post-emergence herbicidal activity, ABUTH. As to conditions: Application post-emergence, 1000 g/Ha, evaluated after 13 days, scale 0-5. The gist of the method: as §3
Assay [7] deals with Setaria faberi. Kind of assay: Post-emergence herbicidal activity, SETFA. The following applies: Application post-emergence, 1000 g/Ha, evaluated after 13 days, scale 0-5. In outline: as §3
Assay [8] deals with Amaranthus retroflexus. Kind of assay: Pre-emergence herbicidal activity, AMARE. The following applies: Application pre-emergence, 1000 g/Ha, evaluated after 13 days, scale 0-5. The gist of the method:
as §1

The subject of assay [9] is Amaranthus retroflexus. Kind of assay: Post-emergence herbicidal activity, AMARE. As to conditions: Application post-emergence, 1000 g/Ha, evaluated after 13 days, scale 0-5. In outline: as §3
Assay [10] deals with Setaria faberi. In words: Pre-emergence herbicidal activity, SETFA. As to conditions: Application pre-emergence, 1000 g/Ha, evaluated after 13 days, scale 0-5. The gist of the method: as §1
The subject of assay [11] is Alopecurus myosuroides. In words: Pre-emergence herbicidal activity, ALOMY. As to conditions: Application pre-emergence, 1000 g/Ha, evaluated after 13 days, scale 0-5. How it is done:
as §2, with “After” for “After 8 days”, “for one day (pre-emergence)” for “(post-emergence)”

Assay [12] has as its system Echinochloa crus-galli. In words: Post-emergence herbicidal activity, ECHCG. The following applies: Application post-emergence, 1000 g/Ha, evaluated after 13 days, scale 0-5. The gist of the method:
as §3

Consider `COc1ccc(-c2cnc(N3C(=O)N(C)CC3O)cc2C(F)(F)F)c(OC)c1` (stereo not drawn) [Compound A15], for which the ZEAMX damage score in [1] worked out at 0; in assay [3] it was 1. For the same compound, the ALOMY damage score is 3 in assay [2] and 1 in assay [11]. Further, the ABUTH damage score in [4] was 3; in assay [6] it was 5. The ECHCG damage score in assay [5] is 1; in [12], 4. Besides, the SETFA damage score is 3 in assay [7] and 2 in assay [10]. In addition, the figures for the AMARE damage score in assay [8] and in [9] were 2 and 5, respectively.

For `CN1CC(O)N(c2cc(C(F)(F)F)c(-c3ccc(C#N)s3)cn2)C1=O` (stereo not drawn) [Compound A14], the ZEAMX damage score came to 2 in assay [1] and 3 in assay [3]. Moreover, the values for the ALOMY damage score in assay [2] and in assay [11] were 4 and 2, respectively. Besides, the ABUTH damage score in assay [4] is listed as 3; in assay [6] it was 5. Moreover, the values for the ECHCG damage score in [5] and in [12] were 3 and 5, respectively. For the same compound, the values for the SETFA damage score in [7] and in assay [10] were 5 and 2, respectively. Further, the AMARE damage score in [8] and in [9] was 5 each time.

In the case of `CN1CC(O)N(c2cc(C(F)(F)F)c(Br)cn2)C1=O` (stereo not drawn) [Compound A19], the ZEAMX damage score in assay [1] was determined as 5; in assay [3], 4. Moreover, the ALOMY damage score in [2] and in [11] was 5 throughout. For the same compound, the ABUTH damage score in assay [4] and in [6] was 5 each time. Besides, the ECHCG damage score in assay [5] and in [12] was 5 in each case. Moreover, the SETFA damage score in assay [7] and in [10] was 5 each time. Further, the AMARE damage score in assay [8] and in assay [9] was 5 in each case.
